In article PMC11026403 (Communications Biology, 2024):

Molecular target: A/Denmark/528/2009 (H1N1)pdm09 NA-H274Y (Influenza A virus, UniProt C3W5S3, H275Y)
Assay type: biochemical, Influenza A virus A/Denmark/528/2009 (H1N1)pdm09

Row | Compound | NAI susceptibility classification (WHO guidance) | IC50
1 | CCC(CC)O[C@@H]1C=C(C(=O)O)C[C@H](N)[C@H]1NC(C)=O [oseltamivir, oseltamivir carboxylate] | highly reduced inhibition (key: <10-fold, normal inhibition; 10–100 fold, reduced inhibition; >100-fold, highly reduced inhibition) | 
2 | CCC(CC)[C@H](NC(C)=O)[C@@H]1[C@H](O)[C@@H](C(=O)O)C[C@H]1N=C(N)N [peramivir] | highly reduced inhibition (key: <10-fold, normal inhibition; 10–100 fold, reduced inhibition; >100-fold, highly reduced inhibition) | 23.5 nM
